These results are taken from US7223758B2, “Pyridazine derivative, pharmaceutical composition thereof, its pharmaceutical use, and process for its preparation” (Sanofi-Aventis, priority 2002, dated 2007).

In general, IC50 refers to the concentration needed to halve the response being measured. High values mean lower potency, low ones higher potency.

Where only a bound is given, the exact number is not on record here.

In this experiment the target is T1, cathepsin K (Homo sapiens, UniProt P43235).
T1 sequence (P43235 115-329): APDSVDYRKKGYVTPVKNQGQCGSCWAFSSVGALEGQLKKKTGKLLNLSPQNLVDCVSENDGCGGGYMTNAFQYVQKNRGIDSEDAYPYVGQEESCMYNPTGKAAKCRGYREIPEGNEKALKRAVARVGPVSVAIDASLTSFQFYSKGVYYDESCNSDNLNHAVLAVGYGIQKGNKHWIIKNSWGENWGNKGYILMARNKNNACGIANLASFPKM
The experiment is described as follows: Study of the inhibition of cathepsin K (fluorogenic substrate Z-Val-Arg-AMC). Format: biochemical. To be noted: cathepsin K 5 ng/ml, substrate Z-Val-Arg-AMC 20 μM, pH 5.5, two hours at room temperature; concentration range from 50 to 0.5 μM. How it is done:
Pharmacological study of the products of the invention Study of the inhibition of cathepsin K
The test products (10 mM) are diluted to 1 mM in DMSO and distributed in polystyrene Nunc 96-well plates at a rate of 2 μl per well. Column 12 of the plate is reserved for the controls and thus receives […] of DMSO (without products) per well. The plates are stored at −80° C. and thawed on the day of the experiment.
The products are diluted to 50 μM by addition of 38 μl of reaction buffer: 100 mM sodium acetate, 5 mM EDTA, 1 mM DTT, pH 5.5. The addition and all the pipetting are performed with a 96-tip CybiWell pipette. After mixing the solutions, each product is transferred into 2 wells (duplicates) of a black Greiner 384-well plate at a rate of 10 μl per well. Two 96-well plates can thus be tested in one 384-well plate.
A solution of substrate, Z-Val-Arg-AMC (Calbiochem), at a concentration of 50 μm is prepared in the reaction buffer. The substrate is the distributed among all the wells of the 384-well plate (20 μl per well).
A solution of cathepsin K at a concentration of 12.5 ng/ml is prepared in the reaction buffer and distributed among all the wells of the 384-well plate (20 μl per well) except for the 16 wells serving as 100% inhibition controls (columns 23 and 24, lines I to P), which receive 20 μl of enzyme-free buffer. […] are performed in columns 23 and 24, lines A to H, which contain no products.
The plates are then incubated for two hours at room temperature, and then read on a Fluoroskan (Labsystems): excitation 390 nm; emission 460 nm.
The final concentrations of each of the reagents are: Products 10 μM, Substrate 20 μM, enzyme 5 ng/ml.
The percentages of inhibition for each of the products are calculated by using the points at 0 and 100% inhibition of each plate as references. The products showing significant inhibition are then retested over a concentration range from 50 to 0.5 μM to determine an IC50.
`N#CC(OC(=O)[C@@H]1CCCN(C(=O)OCc2ccccc2)N1C(=O)CCNC(=O)Cc1ccccc1)c1cccc(Oc2ccccc2)c1` (mixture of isomers) [Example 7, 1-(phenylmethyl)-3-[(R)-cyano(3-phenoxyphenyl)methyl](3S)-2-[1-oxo-3-[(phenylacetyl)amino]propyl]tetrahydro-1,3(2H)-pyridazinedicarboxylate] registered an IC50 of 1 to 10 µM. In the case of `N#CC(NC(=O)[C@@H]1CCCNN1C(=O)CCc1ccccc1)c1cccc(Oc2ccccc2)c1` (stereo partly drawn) [Example 15, (3S)-N-[cyano(3-phenoxyphenyl)methyl]-2-(1-oxo-3-phenylpropyl)hexa-hydro-3-pyridazinecarboxamide] it was under 1 µM; in that of `N#CC(NC(=O)[C@@H]1CCCN(C(=O)OCc2ccccc2)N1C(=O)CCNC(=O)Cc1ccccc1)c1cccc(Oc2ccccc2)c1` (stereo partly drawn) [Example 4, (phenylmethyl) (3S)-2-[1-oxo-3-[(phenylacetyl)amino]propyl]-3-[[[cyano(3-phenoxy-phenyl)methyl]amino]carbonyl]tetrahydro-1(2H)pyridazine-carboxylate], 1 to 10 µM.

For `N#CC(OC(=O)[C@@H]1CCCNN1C(=O)CCNC(=O)Cc1ccccc1)c1cccc(Oc2ccccc2)c1` (mixture of isomers) [Example 8, 3-[cyano(3-phenoxyphenyl)methyl] (3S)-2-[1-oxo-3-[(phenylacetyl)-amino]propyl]tetrahydro-1,3-(2H)-pyridazinecarboxylate], the IC50 fell in the range of 1 to 10 µM. In the case of `N#CNC(=O)[C@@H]1CCCNN1C(=O)CCNC(=O)Cc1ccccc1` [Example 13, (3S)-N-cyano-2-[1-oxo-3-[(phenylacetyl)amino]propyl]hexahydro-3-pyridazinecarb-oxamide] it was 1 to 10 µM. In the case of “(phenylmethyl) (3S)-3-[[[cyano(3-phenoxyphenyl)methyl]amino]carbonyl]-2-[3-phenyl-1-oxopropyl]tetrahydro-1(2H)-pyridazine-carboxylate [Example 14]” it was 1 to 10 µM; in that of `N#CC(NC(=O)[C@@H]1CCCNN1C(=O)CCNC(=O)Cc1ccccc1)c1ccccc1` (stereo partly drawn) [Example 11, (3S)-N-(cyanophenyl-methyl)-2-[1-oxo-3-[(phenylacetyl)amino]propyl]hexa-hydro-3-pyridazinecarboxamide], 1 to 10 µM; in that of `N#CC(OC(=O)[C@@H]1CCCN(C(=O)OCc2ccccc2)N1C(=O)CCNC(=O)Cc1ccccc1)c1cccc(Oc2ccc(Br)cc2)c1` (stereo partly drawn) [Example 9, 1-(phenylmethyl)-3-[cyano-3-[(4-bromophenoxy)phenyl]-methyl] (3S)2-[1-oxo-3-[(phenylacetyl)amino]propyl]-tetrahydro-1,3(2H)-pyridazinedicarboxylate], 1 to 10 µM. As to `N#CC(NC(=O)[C@@H]1CCCN(C(=O)OCc2ccccc2)N1C(=O)CCNC(=O)Cc1ccccc1)c1ccccc1` (stereo partly drawn) [Example 10, (phenylmethyl) (3S)-3-[[(cyanophenylmethyl)amino]carbonyl]-2-[1-oxo-3-[(phenylacetyl)amino]propyl]tetrahydro-1(2H)-pyridazinecarboxylate], the IC50 was in the range of 1 to 10 µM. In the case of `N#CC(NC(=O)[C@@H]1CCCNN1C(=O)CCNC(=O)Cc1ccccc1)c1cccc(Oc2ccccc2)c1` (mixture of isomers) [Example 5, (3S)-2-[3-[(phenylacetyl)amino]-1-oxopropyl]-N-[cyano-(3-phenoxyphenyl)methyl]hexahydro-3-pyridazine-carboxamide] it was under 1 µM; in that of `N#CCNC(=O)[C@@H]1CCCN(C(=O)OCc2ccccc2)N1C(=O)CCNC(=O)Cc1ccccc1` [Example 12], 1 to 10 µM.
